Results on five molecules are retold here after patent US8242081B2, “Cell penetrating peptides for intracellular delivery of molecules” (Centre National de la Recherche Scientifique, priority 2005, dated 2012).

Where two headings read alike, the source gives them in different places. Peptide text beside a SMILES is read from it.

The test system of test [1] is HS-68 and Hela cells. Briefly: Toxicity of CADY variants, MTT assay (Table 1). The test is classed as cell-based, human. As for the experimental part:
The toxicity of CADY peptides has been investigated on different cell lines. Cells were incubated in the presence of increasing concentrations of CADY (from 0.1 μM to 1 mM) for 12 hrs and cell viability was estimated using MTT assay.
The different CADY variants have been tested on HS-68 and Hela cells.
The lack of toxicity of CADY/cargo complexes can be directly associated to absence of free carrier peptide in the solution (FIG. 4B).
For orientation: Formazan colour is commonly taken as a measure of viable cells.

Test [2] deals with 5PC3 or Human H1299 adenocarcinoma cells. Briefly: Intravenous injection of siRNA/CADY complexes, tumor mouse models. It is filed as in vivo, NCR nude mice. The settings on record: only one injection, siRNA 10 μg. As for the experimental part: Experiments were performed on two tumor mouse models.
(A) 1×10^6 5PC3 adenocarcinoma cells were injected subcutaneously into the flanks of NCR nude mice (day 1). siRNA/CADY-S complexes were obtained as described before at a ratio 1:20. CADY-S/siRNA complexes were injected intravenously at day 7. The size of the tumor was measured every day. Results correspond to the average of 5 different animals.
(B) 1×10^6 tumor cells expressing luciferase were injected intraperitoneally in the mice (4 to 8 week-old immune competent A/J female mices). Tumors were monitored using in vivo Imaging System (IVIS-Xenogen), which quantified total body bioluminescence after injection of D-luciferin. The tumor cells are visualized on three mice, each representative of one group (siRNA alone, CADY/siRNA complexes, and CADY-S/siRNA complexes).
The in vivo efficiency of CADY-S was then investigated, in order to determine if the cholesterol-modified form of CADY can improve siRNA delivery through intravenous injection and block tumor growth in vivo. Experiments were performed on two tumor mouse models, in which 5PC3 or Human H1299 adenocarcinoma cells were injected subcutaneously into the flanks of NCR nude mice.

The test system of test [3] is Jurkat, WI-38, HS-68 and HeLa cells. Briefly: CADY-2-mediated delivery of p27-derived peptides, cell arrest in G1 by FACS. It is filed as cell-based. As for the experimental part: FIG. 12: The different p27-derived peptides were associated with CADY-2 at a molar ratio of 1/20, since it was determined that at this ratio, the average size of the particle is of about 100-200 nm in diameter. The formulations were obtained in phosphate buffer, using a fixed concentration of peptide of 1 μM. Cell lines were cultured in Dulbecco's Modified Eagle's Medium supplemented with 2 mM glutamine, 1% antibiotics (streptomycin 10'000 μg/ml, penicillin, 10'000 IU/ml) and 10% (w/v) fetal calf serum (FCS), at 37° C. in a humidified atmosphere containing 5% CO2. Cells were synchronized by serum privation during 40 hrs, and cultured in Dulbecco's Modified Eagle's Medium supplemented with 2 mM glutamine, 1% antibiotics. G1 synchronized cells were released upon serum addition, then overlaid with preformed CADY-2/peptide complexes. After 30 min incubation at 37° C., 1 ml of fresh DMEM supplemented with 10% fetal calf serum was added directly to the cells, without removing the overlay of CADY/peptide complexes, and cells were returned to the incubator. The level of cell arrest in G1 was analyzed by FACS 24 hrs after release.
(In general: A flow cytometer gives signals particle by particle.)

The subject of test [4] is Human H1299 adenocarcinoma cells. Briefly: Effect of p1p27/CADY complexes on tumor growth in vivo, intratumoral injection. The arrangement: species or system Swiss nude mice. The note with it: 5 weeks after injection, control experiments. As for the experimental part:
The tumor animal model consists of Swiss nude mice, injected subcutaneously with 2×10^7 Human H1299 adenocarcinoma cells. CADY2/p1p27 complex and free CADY-2 and peptides were injected directly into the tumor (100-300 μg) after 1 and 4 weeks. p1p27/CADY complexes were obtained as described before at a ratio 1/20. Controls were performed by injecting PBS, CADY alone, or naked p1p27 instead of the p1p27/CADY-2 complex. The size of the tumor volume was measured with calipers once a week. Results correspond to the average of 5 different animals.

The mark [5] stands for this setting: peptide delivered with CADY-2, ratio 1/20, 1 μM peptide, 24 hrs after release.

The term EC50 denotes the midpoint of the concentration-response curve. On to `CC(=O)NCC(=O)N[C@@H](CC(C)C)C(=O)N[C@@H](Cc1c[nH]c2ccccc12)C(=O)N[C@@H](CCCNC(=N)N)C(=O)N[C@@H](C)C(=O)N[C@@H](CC(C)C)C(=O)N[C@@H](Cc1c[nH]c2ccccc12)C(=O)N[C@@H](CCCNC(=N)N)C(=O)N[C@@H](CC(C)C)C(=O)N[C@@H](CC(C)C)C(=O)N[C@@H](CCCNC(=N)N)C(=O)N[C@@H](CO)C(=O)N[C@@H](CC(C)C)C(=O)N[C@@H](Cc1c[nH]c2ccccc12)C(=O)N[C@@H](CCCNC(=N)N)C(=O)N[C@@H](CC(C)C)C(=O)N[C@@H](CC(C)C)C(=O)N[C@@H](Cc1c[nH]c2ccccc12)C(=O)N[C@@H](CCCCN)C(=O)N[C@@H](C)C(=O)NCCSS[C@H]1CC[C@@]2(C)C(=CC[C@H]3[C@@H]4CC[C@H]([C@H](C)CCCC(C)C)[C@@]4(C)CC[C@@H]32)C1` [CADY-S2] (HELM PEPTIDE1{[ac].G.L.W.R.A.L.W.R.L.L.R.S.L.W.R.L.L.W.K.A.[CC(C)CCC[C@@H](C)[C@H]1CC[C@H]2[C@@H]3CC=C4C[C@@H](SSCCN[*:1])CC[C@]4(C)[C@H]3CC[C@]12C]}$$$$V2.0), for which the EC50 in test [1] (12 h) came to 800 µM. Consider `CC(C)CCC[C@@H](C)[C@H]1CC[C@H]2[C@@H]3CC=C4C[C@@H](OC(=O)NCC(=O)N[C@@H](CC(C)C)C(=O)N[C@@H](Cc5c[nH]c6ccccc56)C(=O)N[C@@H](CCCNC(=N)N)C(=O)N[C@@H](C)C(=O)N[C@@H](CC(C)C)C(=O)N[C@@H](Cc5c[nH]c6ccccc56)C(=O)N[C@@H](CCCNC(=N)N)C(=O)N[C@@H](CC(C)C)C(=O)N[C@@H](CC(C)C)C(=O)N[C@@H](CCCNC(=N)N)C(=O)N[C@@H](CO)C(=O)N[C@@H](CC(C)C)C(=O)N[C@@H](Cc5c[nH]c6ccccc56)C(=O)N[C@@H](CCCNC(=N)N)C(=O)N[C@@H](CC(C)C)C(=O)N[C@@H](CC(C)C)C(=O)N[C@@H](Cc5c[nH]c6ccccc56)C(=O)N[C@@H](CCCCN)C(=O)N[C@@H](C)C(=O)NCCS)CC[C@]4(C)[C@H]3CC[C@]12C` [CADY-S] (HELM PEPTIDE1{[CC(C)CCC[C@@H](C)[C@H]1CC[C@H]2[C@@H]3CC=C4C[C@@H](OC(=O)[*:2])CC[C@]4(C)[C@H]3CC[C@]12C].G.L.W.R.A.L.W.R.L.L.R.S.L.W.R.L.L.W.K.A.[SCCN[*:1]]}$$$$V2.0), for which the tumor growth result in test [2] is reported as “fully abolish the tumor growth”. Further, the EC50 in test [1] (complexed with cargo (ratio 1/20), MTT, read-out: complexed EC50) amounted to 1000 µM. “NRTEENVSDGSPNAGSVEQTPKKPGLR [p2p27, p27-derived peptide used as a negative control, reference compound]”: the “cell cycle arrest in G1” value in test [3] (setting [5]) is given as “no effect”. Consider PSLERMDAR [pRXL], for which the “efficiency compared with published TAT or Pen covalent based strategy” value in test [3] (pRXL with CADY strategy) was “at least 2 fold”. For the same molecule, the “cell cycle arrest in G1” value in test [3] (setting [5]) is on record as “induced a cell cycle arrest in G1”.

With RVSNGSPSLERMDARQAEHPKPSACRNL [p1p27], the “cell cycle arrest in G1” value is “no effect” in test [3] (carrier alone or free peptide) and “induced a cell cycle arrest in G1” in test [3] (setting [5]). Further, in test [4], the “increase of tumor size” value is listed as 5 fold.
